These substances were tested on human (tumor) Hif2α (EPAS1) mRNA (assay: Hif2α knockdown in orthotopic RCC tumor bearing mice, single injection of RNAi trigger-delivery polymer conjugate, RT-qPCR (Table 7)). Conditions: RNAi trigger 80 μg, polymer 126 400 μg; single tail vein injection; relative to isotonic glucose.
Assay type: in vivo
Method in brief: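 Female athymic nude mice carried orthotopic A498-SEAP ccRCC kidney tumours, used 5–6 weeks after implantation. They received one tail-vein injection of RGD-targeted Hif2α RNAi trigger–polymer conjugate or isotonic glucose. Tumour Hif2α mRNA was measured by TaqMan RT-qPCR normalised to CycA (ΔΔCT) and expressed relative to glucose-treated mice.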

Substance | Relative Expression day 4 (Hif2α mRNA in kidney tumor)
AD01291 (antisense TUUCAUGAAAUCGUUACGUUGGC; sense CAACGUAACGAUUUCAUGAAA; Hif2alpha RNAi agent antisense strand; modified_base 2,4,6,8,10,14,16,18,20 /mod_base = “2′-deoxy-2′-fluoro corresponding nucleoside”; modified_base 3,5,7,9,11,12,13,15,17,19,21,22,23 /mod_base = “2′-O-methyl corresponding nucleoside”; modified_base 2,3,22,23 /mod_base = “5′-phosphorothioate corresponding nucleotide”; Hif2alpha RNAi agent sense strand; modified_base 1,3,5,7,9,10,11,13,15,17,19,21 /mod_base = “2′-deoxy-2′-fluoro corresponding nucleoside”; modified_base 2,4,6,8,12,14,16,18,20 /mod_base = “2′-O-methyl corresponding nucleoside”; modified_base 2,3 /mod_base = “5′-phosphorothioate) | 0.19
AD01292 (antisense TUUCAUGAAAUCGUUACGUUGGC; sense CAACGUAACGAUUUCAUGAAA; Hif2alpha RNAi agent antisense strand; modified_base 2,4,6,8,10,14,16,18,20 /mod_base = “2′-deoxy-2′-fluoro corresponding nucleoside”; modified_base 3,5,7,9,11,12,13,15,17,19,21,22,23 /mod_base = “2′-O-methyl corresponding nucleoside”; modified_base 2,3,22,23 /mod_base = “5′-phosphorothioate corresponding nucleotide”; Hif2alpha RNAi agent sense strand; modified_base 3,5,7,9,10,11,13,15,17,19,21 /mod_base = “2′-deoxy-2′-fluoro corresponding nucleoside”; modified_base 2,4,6,8,12,14,16,18,20 /mod_base = “2′-O-methyl corresponding nucleoside”; modified_base 1 /mod_base = “2′-3′ seco correspondin) | 0.27
AD01293 (antisense TUUCAUGAAAUCGUUACGUUGGCUGU; sense UAUAUCAACGUAACGAUUUCAUGAAA; Hif2alpha RNAi agent antisense strand; modified_base 25 modified base = “2′-hydroxy corresponding nucleoside”; modified_base 2,4,6,8,10,14,16,18,20 /mod_base = “2′-deoxy-2′-fluoro corresponding nucleoside”; modified_base 3,5,7,9,11,12,13,15,17,19,21,22,23,24,26 /mod_base = “2′-O-methyl corresponding nucleoside”; modified_base 2,3,23,24 /mod_base = “5′-phosphorothioate corresponding nucleotide”; Hif2alpha RNAi agent sense strand; modified_base 2,4 modified base = “2′-hydroxy corresponding nucleoside”; modified_base 6,8,10,12,14,15,16,18,20,22,24,26 /mod_base = “2′-deoxy-2′-fluoro correspondin) | 0.20
AD01294 (antisense TUUCAUGAAAUCGUUACGUCGGCUGU; sense UAUAUCGACGUAACGAUUUCAUGAAA; Hif2alpha RNAi agent antisense strand; modified_base 25 modified base = “2′-hydroxy corresponding nucleoside”; modified_base 2,4,6,8,10,14,16,18,20 /mod_base = “2′-deoxy-2′-fluoro corresponding nucleoside”; modified_base 3,5,7,9,11,12,13,15,17,19,21,22,23,24,26 /mod_base = “2′-O-methyl corresponding nucleoside”; modified_base 2,3,23,24 /mod_base = “5′-phosphorothioate corresponding nucleotide”; Hif2alpha RNAi agent sense strand; modified_base 2,4 modified base = “2′-hydroxy corresponding nucleoside”; modified_base 6,8,10,12,14,15,16,18,20,22,24,26 /mod_base = “2′-deoxy-2′-fluoro correspondin) | 0.17
AD01295 (antisense TUUCAUGAAAUCGUUACGUUGGCUAU; sense UAUAUCAACGUAACGAUUUCAUGAAA; Hif2alpha RNAi agent antisense strand; modified_base 25 modified base = “2′-hydroxy corresponding nucleoside”; modified_base 2,4,6,8,10,14,16,18,20 /mod_base = “2′-deoxy-2′-fluoro corresponding nucleoside”; modified_base 3,5,7,9,11,12,13,15,17,19,21,22,23,24,26 /mod_base = “2′-O-methyl corresponding nucleoside”; modified_base 2,3,23,24 /mod_base = “5′-phosphorothioate corresponding nucleotide”; Hif2alpha RNAi agent sense strand; modified_base 2,4 modified base = “2′-hydroxy corresponding nucleoside”; modified_base 6,8,10,12,14,15,16,18,20,22,24,26 /mod_base = “2′-deoxy-2′-fluoro correspondin) | 0.22
AD01296 (antisense TUUCAUGAAAUCGUUACGUUGGCUTT; sense UAUAUCAACGUAACGAUUUCAUGAAA; Hif2alpha RNAi agent antisense strand; modified_base 2,4,6,8,10,14,16,18,20 /mod_base = “2′-deoxy-2′-fluoro corresponding nucleoside”; modified_base 3,5,7,9,11,12,13,15,17,19,21,22,23,24 /mod_base = “2′-O-methyl corresponding nucleoside”; modified_base 2,3,25,26 /mod_base = “5′-phosphorothioate corresponding nucleotide”; Hif2alpha RNAi agent sense strand; modified_base 2,4 modified base = “2′-hydroxy corresponding nucleoside”; modified_base 6,8,10,12,14,15,16,18,20,22,24,26 /mod_base = “2′-deoxy-2′-fluoro corresponding nucleoside”; modified_base 1,3,5,7,9,11,13,17,19,21,23,25 /mod_base = “2′) | 0.21

Same assay, conditions: RNAi trigger 115 μg, polymer 100A 375 μg; single tail vein injection; relative to isotonic glucose

Substance | Relative Expression day 4 (Hif2α mRNA in kidney tumor)
AD01290 (antisense TUUCAUGAAAUCGUUACGUTT; sense ACGUAACGAUUUCAUGAAAT; Hif2alpha RNAi agent antisense strand; modified_base 2,4,6,8,10,12,14,16,18 /mod_base = “2′-deoxy-2′-fluoro corresponding nucleoside”; modified_base 3,5,7,9,11,13,15,17,19 /mod_base = “2′-O-methyl corresponding nucleoside”; modified_base 21 /mod_base = “5′-phosphorothioate corresponding nucleotide”; Hif2alpha RNAi agent sense strand; modified_base 1,3,7,9,11,13,15,17,19 /mod_base = “2′-deoxy-2′-fluoro corresponding nucleoside”; modified_base 2,4,5,6,8,10,12,14,16,18 /mod_base = “2′-O-methyl corresponding nucleoside”; modified_base 20 /mod_base = “3′-3′-linked nucleotide”; modified_base 1 /mo) | 0.39

Same assay, conditions: RNAi trigger 150 μg, polymer 100A 300 μg; single tail vein injection; relative to isotonic glucose

Substance | Relative Expression day 4 (Hif2α mRNA in kidney tumor)
AD01404 (antisense TUUCAUGAAAUCGUUACGUCGGCUAU; sense UAUAUCGACGUAACGAUUUCAUGAAA; Hif2alpha RNAi agent antisense strand; modified_base 25 modified base = “2′-hydroxy corresponding nucleoside”; modified_base 2,4,6,10,12,14,16,18,20 /mod_base = “2′-deoxy-2′-fluoro corresponding nucleoside”; modified_base 3,5,7,9,11,13,15,17,19,21,22,23,24,26 /mod_base = “2′-O-methyl corresponding nucleoside”; modified_base 8 /mod_base = “2′-3′ seco corresponding nucleotide”; modified_base 2,3,23,; Hif2alpha RNAi agent sense strand; modified_base 2,4 modified base = “2′-hydroxy corresponding nucleoside”; modified_base 6,8,10,12,14,16,18,20,22,24,26 /mod_base = “2′-deoxy-2′-fluoro correspondi) | 0.58
AD01405 (antisense TUUCAUGAAAUCGUUACGUCGGCUAU; sense UAUAUCGACGUAACGAUUUCAUGAAA; Hif2alpha RNAi agent antisense strand; modified_base 25 modified base = “2′-hydroxy corresponding nucleoside”; modified_base 2,4,6,10,12,14,16,18,20 /mod_base = “2′-deoxy-2′-fluoro corresponding nucleoside”; modified_base 3,5,7,9,11,13,15,17,19,21,22,23,24,26 /mod_base = “2′-O-methyl corresponding nucleoside”; modified_base 8 /mod_base = “2′-3′ seco corresponding nucleotide”; modified_base 2,3,23,; Hif2alpha RNAi agent sense strand; modified_base 2,4 modified base = “2′-hydroxy corresponding nucleoside”; modified_base 6,8,10,12,14,16,18,20,22,24,26 /mod_base = “2′-deoxy-2′-fluoro correspondi) | 0.51

Reference: patent US9976141B2, “Compositions and methods for inhibiting gene expression of Hif2alpha” (Arrowhead Madison Inc., priority 2015, dated 2018)
